Experimental findings from ChEMBL document CHEMBL1201862, “PubChem BioAssay data set” (2004) are described below.

Some test systems named below: HT-29; KM12; CAKI-1; M14; OVCAR-4; SF-295; LOX IMVI; COLO 205; UACC-62; OVCAR-8; HOP-62; OVCAR-5; RPMI-8226; UO-31; SK-OV-3; IGROV-1; SN12C; HL-60; SR.
Test in all cases: NCI tumour cell line growth inhibition, 48 h

Each structure is given as a SMILES string.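 96-well plates; 48 h exposure; 5 concentrations. Endpoints by linear interpolation between flanking doses. Not reached: highest tested concentration assigned. GI50 = concentration required for 50% inhibition of growth.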 Active and inactive are the calls of the source. Cut-off read from the data, not from the text of the source: active = GI50 up to about 1.1 µM and inactive = higher.

On to `N#CC1C(=O)C(=O)N(c2ccccc2)C1=O` (configuration not stated), for which the GI50 in the assay on HT-29, in the assay on KM12, with CAKI-1, with M14, in the assay on OVCAR-4 and with SF-295 was > 100 µM (inactive) each time. In addition, the GI50 with LOX IMVI, with COLO 205, in the assay on UACC-62, in the assay with OVCAR-8, in the assay on HOP-62 and in the assay on OVCAR-5 was > 100 µM (inactive) each time. For the same molecule, the GI50 in the assay with RPMI-8226, with UO-31, with SK-OV-3, with IGROV-1 and in the assay with SN12C was > 100 µM (inactive) throughout.
As to `COc1ccc(N(CC(=O)O)S(=O)(=O)c2ccccc2)cc1`, the GI50 with HT-29, in the assay on KM12, with CAKI-1, with M14, with OVCAR-4 and in the assay with SF-295 was > 100 µM (inactive) each time. Moreover, the GI50 with LOX IMVI, in the assay on COLO 205, in the assay with UACC-62, in the assay on OVCAR-8, in the assay on OVCAR-5 and with RPMI-8226 was > 100 µM (inactive) each time. In addition, the GI50 with UO-31, in the assay on SK-OV-3, in the assay on IGROV-1, with HL-60 and in the assay on SN12C was > 100 µM (inactive) each time.
For `CC12CC3CC(C1)CC(N=[N+]=[N-])(C3)C2`, the GI50 in the assay with HT-29, with KM12, in the assay on CAKI-1, in the assay with M14, in the assay with OVCAR-4 and with SF-295 was > 100 µM (inactive) each time. For the same molecule, the GI50 in the assay on LOX IMVI, in the assay with COLO 205, with UACC-62, in the assay with OVCAR-8, with HOP-62 and with OVCAR-5 was > 100 µM (inactive) each time. The GI50 with RPMI-8226, with UO-31, with SK-OV-3, in the assay with IGROV-1 and with SN12C was > 100 µM (inactive) in each case.
With `CCOC(=O)C1S/C(=N\c2ccc(Cl)cc2Cl)N=C1C` (configuration not stated), the GI50 in the assay with HT-29 is > 100 µM (inactive); in the assay with KM12 it was > 100 µM (inactive); in the assay with CAKI-1, 66.2 µM (inactive); in the assay with M14, 81.8 µM (inactive); with OVCAR-4, 20.8 µM (inactive); in the assay on SF-295, 32.1 µM (inactive). Moreover, the GI50 was 74.5 µM (inactive) with LOX IMVI; > 100 µM (inactive) in the assay with COLO 205; 46.9 µM (inactive) with UACC-62; 74.6 µM (inactive) in the assay with OVCAR-8; 51.9 µM (inactive) in the assay with HOP-62; > 100 µM (inactive) with OVCAR-5. The GI50 was > 100 µM (inactive) with UO-31, > 100 µM (inactive) with IGROV-1, 68.4 µM (inactive) in the assay on HL-60 and > 100 µM (inactive) in the assay on SN12C.
Take `O=S(=O)(O)c1ccc2c(/N=N/c3cccc4ccccc34)c(O)c(S(=O)(=O)O)cc2c1`: the GI50 with HT-29, in the assay with KM12, in the assay with CAKI-1, in the assay with M14, with OVCAR-4 and in the assay on SF-295 was > 100 µM (inactive) in each case. For the same molecule, the GI50 in the assay with LOX IMVI, in the assay with COLO 205, in the assay on UACC-62, in the assay on OVCAR-8, with HOP-62 and in the assay on OVCAR-5 was > 100 µM (inactive) in each case. Further, the GI50 in the assay on RPMI-8226, in the assay on UO-31, with SK-OV-3, with IGROV-1, in the assay on HL-60 and in the assay on SN12C was > 100 µM (inactive) each time.
Turning to `CC1(C)C=CC(=O)C(O)C(C)(C)C1=O` (configuration not stated), the GI50 is 88.3 µM (inactive) with HT-29; 65.8 µM (inactive) in the assay on KM12; > 100 µM (inactive) with CAKI-1; > 100 µM (inactive) in the assay with M14; > 100 µM (inactive) with OVCAR-4; 75.3 µM (inactive) with SF-295. The GI50 in the assay with LOX IMVI was 28.7 µM (inactive); in the assay on COLO 205, > 100 µM (inactive); in the assay on UACC-62, 52.8 µM (inactive); with OVCAR-8 it was 59 µM (inactive); in the assay with HOP-62, 53.6 µM (inactive); in the assay with OVCAR-5 it was > 100 µM (inactive). In addition, the GI50 was 21.3 µM (inactive) in the assay with RPMI-8226; > 100 µM (inactive) in the assay with UO-31; > 100 µM (inactive) in the assay with SK-OV-3; 89.1 µM (inactive) in the assay on IGROV-1; 27.4 µM (inactive) in the assay on HL-60; > 100 µM (inactive) in the assay with SN12C.
Consider `C/C=C(\C)C(=O)OC1C2C(C)=CC(=O)C(O)C2(C)C2C3(O)OCC24C1OC(=O)C(OC(C)=O)C4C(C)C3O` (configuration not stated), for which the GI50 with HT-29 was 0.0385 µM (active); with KM12, 0.0375 µM (active); in the assay on CAKI-1, 0.197 µM (active); in the assay with OVCAR-4 it was 0.11 µM (active); with SF-295, 0.0402 µM (active); with LOX IMVI it was 0.0375 µM (active). Moreover, the GI50 in the assay on COLO 205 was 0.0719 µM (active); in the assay with UACC-62, 0.0375 µM (active); in the assay on OVCAR-8, 0.0396 µM (active); in the assay with HOP-62, 0.0375 µM (active); with OVCAR-5 it was 0.111 µM (active); with RPMI-8226, 0.0375 µM (active). Moreover, the GI50 in the assay with UO-31 was 0.195 µM (active); with SK-OV-3, 0.144 µM (active); in the assay on IGROV-1, 0.0375 µM (active); in the assay on HL-60, 0.0375 µM (active); in the assay with SN12C, 0.0741 µM (active).
For the molecule `Cc1cc(N(CCC#N)CCC#N)ccc1/C=C(\NC(=O)/C=C/c1ccccc1)C(=O)Nc1ccccc1Cl`, the GI50 with HT-29 was > 100 µM (inactive); with KM12, > 100 µM (inactive); in the assay with CAKI-1 it was 78.7 µM (inactive); in the assay with M14, > 100 µM (inactive); with OVCAR-4, > 100 µM (inactive); in the assay with SF-295, 92 µM (inactive). Also, the GI50 with LOX IMVI, in the assay with COLO 205, in the assay with UACC-62, with OVCAR-8, in the assay with OVCAR-5 and in the assay on RPMI-8226 was > 100 µM (inactive) throughout. For the same molecule, the GI50 in the assay on UO-31, with IGROV-1, with HL-60 and with SN12C was > 100 µM (inactive) each time.
`CCOC(=O)CSC(=O)NCCCl`: the GI50 in the assay with HT-29, with KM12, in the assay with CAKI-1, in the assay on M14, with OVCAR-4 and in the assay with SF-295 was > 100 µM (inactive) in each case. For the same molecule, the GI50 in the assay on COLO 205, in the assay with UACC-62, in the assay on OVCAR-8, in the assay on HOP-62, in the assay with OVCAR-5 and with UO-31 was > 100 µM (inactive) throughout. For the same molecule, the GI50 in the assay on SK-OV-3, in the assay with IGROV-1 and in the assay with SN12C was > 100 µM (inactive) in each case.
Regarding `O=C1C(=C2CCCC2)CCC1CN1CCCCC1` (configuration not stated), the GI50 in the assay with HT-29 was 20.4 µM (inactive); in the assay on KM12, 18.6 µM (inactive); in the assay on M14, 15.7 µM (inactive); in the assay on OVCAR-4, 16.5 µM (inactive); with SF-295, > 100 µM (inactive); in the assay with COLO 205, 25.7 µM (inactive). The GI50 in the assay with UACC-62 was 18.5 µM (inactive); in the assay on OVCAR-8, 21.5 µM (inactive); in the assay with OVCAR-5, 19.8 µM (inactive); in the assay with UO-31, > 100 µM (inactive); in the assay on SR it was 20.7 µM (inactive); in the assay with IGROV-1, 18.4 µM (inactive). In addition, the GI50 in the assay on HL-60 was 4.63 µM (inactive); in the assay on SN12C it was 16.8 µM (inactive).
For the molecule `O=C(CCc1ccccc1)CC1OC(=O)C(Cl)=C1Cl` (configuration not stated), the GI50 with HT-29 was 19.2 µM (inactive); with KM12 it was 17.5 µM (inactive); in the assay on CAKI-1, 29.5 µM (inactive); in the assay on M14, 16.5 µM (inactive); with OVCAR-4, 96.4 µM (inactive); in the assay with SF-295 it was 27.4 µM (inactive). The GI50 in the assay with LOX IMVI was 18.6 µM (inactive); with COLO 205, 17.2 µM (inactive); in the assay with UACC-62, 17 µM (inactive); with OVCAR-8, 20 µM (inactive); in the assay on HOP-62, 26.2 µM (inactive); in the assay with OVCAR-5 it was 20 µM (inactive). Besides, the GI50 in the assay on RPMI-8226 is 32.6 µM (inactive); in the assay with UO-31, 19.3 µM (inactive); in the assay with SK-OV-3 it was 45.6 µM (inactive); in the assay with SR, 30.5 µM (inactive); in the assay with IGROV-1 it was 22.2 µM (inactive); in the assay with SN12C, 18.5 µM (inactive).
Consider `CC(=O)Nc1ccc(C(=O)NN2C(=O)C(Cl)C2c2cccc([N+](=O)[O-])c2)cc1` (configuration not stated), for which the GI50 with HT-29, in the assay with KM12, in the assay on SF-295, in the assay with COLO 205, with UACC-62 and in the assay on OVCAR-8 was > 100 µM (inactive) throughout. Also, the GI50 with HOP-62, in the assay with OVCAR-5, in the assay on RPMI-8226, in the assay with UO-31, in the assay on SK-OV-3 and in the assay on SR was > 100 µM (inactive) each time. Also, the GI50 in the assay on IGROV-1 and in the assay on HL-60 was > 100 µM (inactive) each time.
